# In patent US20250304550A1, “BROMODOMAIN AND EXTRA-TERMINAL (BET) SUBFAMILY BROMODOMAIN 1 (BD1) SELECTIVE INHIBITORS AND METHODS USING SAME” (Baylor College of Medicine, priority 2022, published 2025):
# Experiments:
# BRD4-BD2 = BRD4-BD2 (Homo sapiens (Human), UniProt O60885); test: AlphaScreen bromodomain proximity assay (biotinylated JQ1 competition); format: binding; conditions: in Table 4 '—' = not efficient
# BRDT-BD2 = BRDT-BD2 (Homo sapiens (Human), UniProt Q58F21); test: as above; format: binding; conditions: in Table 4 '—' = not efficient
# BRD4-BD1 = BRD4-BD1 (Homo sapiens (Human), UniProt O60885); test: as above; format: binding; conditions: for IC50: AlphaScreen; for BRD4-BD1 vs. BRD4-BD2 fold: BD1 selectivity, AlphaScreen IC50 ratio
# BRDT-BD1 = BRDT-BD1 (Homo sapiens (Human), UniProt Q58F21); test: as above; format: binding; conditions: for IC50: AlphaScreen; for BRDT-BD1 vs. BRDT-BD2 fold: BD1 selectivity, AlphaScreen IC50 ratio; for fold loss of selectivity BRDT-BD1 over BRDT-BD2: compared to compound 2
# [1] = system: BRD4-dependent AML cell lines; test: Cell viability testing (CellTiterGlo, 72 hours) in AML cell lines; format: cell-based
# [2] = Metabolic stability assay in human liver microsomes; format: in vitro ADME
# [3] = Metabolic stability assay in mouse liver microsomes; format: in vitro ADME
# NanoLuc-BET BD1 = test: NanoBRET target engagement intracellular BET bromodomain assay in HEK293 cells; format: cell-based, human; conditions: transiently transfected HEK293 cells
# [4] = 0.5 mg protein/mL, compound 2.0 μM, NADPH 1.0 mM
Structure (SMILES),IC50 (BRD4-BD2) [nM],IC50 (BRDT-BD2) [nM],IC50 (BRD4-BD1) [nM],BRD4-BD1 vs. BRD4-BD2 fold (BRD4-BD1),IC50 (BRDT-BD1) [nM],BRDT-BD1 vs. BRDT-BD2 fold (BRDT-BD1),also measured
"Cc1ccc(-c2ccc(C(=O)NC(C)CC3CCN(C(=O)Cc4ccc5[nH]c(=O)cc(C)c5c4)CC3)nc2)c(C)c1 (centres unmarked) [Compound 14, 5-(2,4-dimethylphenyl)-N-(1-(1-(2-(4-methyl-2-oxo-1,2-dihydroquinolin-6-yl)acetyl)piperidin-4-yl)propan-2-yl)picolinamide]",20000,23400,52.4,381 fold,31,756 fold,fold loss of selectivity BRDT-BD1 over BRDT-BD2 (BRDT-BD1): 6.5 fold
"CNC(=O)C(CC1CCN(C(=O)Cc2ccc3[nH]c(=O)cc(C)c3c2)CC1)NC(=O)c1ccc(C(F)(F)F)cn1 (centres unmarked) [Compound 12, N-(3-(1-(2-(4-methyl-2-oxo-1,2-dihydroquinolin-6-yl)acetyl)piperidin-4-yl)-1-(methylamino)-1-oxopropan-2-yl)-5-(trifluoromethyl)picolinamide]",8800,7190,6.9,"1,275 fold",14,513 fold,–
"CNC(=O)[C@H](CC1CCN(C(=O)Cc2ccc3[nH]c(=O)cc(C)c3c2)CC1)NC(=O)c1ccc(-c2ccccc2)cn1 [Compound 5, (S)-N-(3-(1-(2-(4-methyl-2-oxo-1,2-dihydroquinolin-6-yl)acetyl)piperidin-4-yl)-1-(methylamino)-1-oxopropan-2-yl)-5-phenylpicolinamide]",–,–,–,–,–,–,cellular potency in AML cell lines (in words) [1]: minimal activity
"Cc1nnc2n1-c1ccc(Cl)cc1C(c1ccccc1)=NC2 [Alprazolam, reference compound]",–,–,–,–,–,–,"HLM t1/2 [2, 4]: 14.4 h; MLM t1/2 [3, 4]: 5.03 h"
"Cc1sc2c(c1C)C(c1ccc(Cl)cc1)=N[C@@H](CC(=O)OC(C)(C)C)c1nnc(C)n1-2 [JQ1, tert-butyl (S)-2-(4-(4-chlorophenyl)-2,3,9-trimethyl-6H-thieno[3,2-f][1,2,4]triazolo[4,3-a][1,4]diazepin-6-yl)acetate, reference compound]",–,–,–,–,–,–,"half-life in human liver microsomes (in words) ([2]; human, microsomes): quite low; inhibition of tracer binding, BD1 vs BD2 (in words) (NanoLuc-BET BD1): binds both BD1 and BD2 equally; metabolic stability in mouse liver microsomes (in words) ([3]; mouse, microsomes): labile"
"CNC(=O)[C@@H](CC1CCN(C(=O)Cc2ccc3[nH]c(=O)cc(C)c3c2)CC1)NC(=O)c1ccc(-c2ccc(Cl)cc2)cn1 [Compound 8, (R)-5-(4-chlorophenyl)-N-(3-(1-(2-(4-methyl-2-oxo-1,2-dihydroquinolin-6-yl)acetyl)piperidin-4-yl)-1-(methylamino)-1-oxopropan-2-yl)picolinamide]",19900,33800,12.8,"1,553 fold",5.1,"6,633 fold",–
"Cc1cc(=O)[nH]c2ccc(CC(=O)N3CCN(CCNC(=O)c4ccccn4)CC3)cc12 [Compound 21, N-(2-(4-(2-(4-methyl-2-oxo-1,2-dihydroquinolin-6-yl)acetyl)piperazin-1-yl)ethyl)picolinamide]",–,71800,1300,–,5200,13.8 fold,–
"CNC(=O)C(CC1CCN(C(=O)Cc2ccc3[nH]c(=O)cc(C)c3c2)CC1)NC(=O)c1ccc(-c2ccc(C)cc2C)cn1 (centres unmarked) [Compound 1, 5-(2,4-dimethylphenyl)-N-(3-(1-(2-(4-methyl-2-oxo-1,2-dihydroquinolin-6-yl)acetyl)piperidin-4-yl)-1-(methylamino)-1-oxopropan-2-yl)picolinamide]",–,–,–,–,5.7,2246 fold,–
"CNC(=O)[C@H](CC1CCN(C(=O)Cc2ccc3[nH]c(=O)cc(C)c3c2)CC1)NC(=O)c1ccc(C(F)(F)F)cn1 [Compound 7, (S)-N-(3-(1-(2-(4-methyl-2-oxo-1,2-dihydroquinolin-6-yl)acetyl)piperidin-4-yl)-1-(methylamino)-1-oxopropan-2-yl)-5-(trifluoromethyl)picolinamide]",–,–,7.4,–,3.8,–,–
"Cc1cc(=O)[nH]c2ccc(CC(=O)N3CCC(CCNC(=O)c4ccc5ccccc5n4)CC3)cc12 [Compound 18, N-(2-(1-(2-(4-methyl-2-oxo-1,2-dihydroquinolin-6-yl)acetyl)piperidin-4-yl)ethyl)quinoline-2-carboxamide]",–,–,122,–,81.3,–,–
"Cc1cc(=O)[nH]c2ccc(CC(=O)N3CCC(CCNC(=O)c4ccccc4)CC3)cc12 [Compound 17, N-(2-(1-(2-(4-methyl-2-oxo-1,2-dihydroquinolin-6-yl)acetyl)piperidin-4-yl)ethyl)benzamide]",–,10400,47.9,–,148,70 fold,–
"CNC(=O)[C@@H](CC1CCN(C(=O)Cc2ccc3[nH]c(=O)cc(C)c3c2)CC1)NC(=O)c1ccc(-c2ccc(Cl)c(F)c2)cn1 [Compound 9, (R)-5-(4-chloro-3-fluorophenyl)-N-(3-(1-(2-(4-methyl-2-oxo-1,2-dihydroquinolin-6-yl)acetyl)piperidin-4-yl)-1-(methylamino)-1-oxopropan-2-yl)picolinamide]",14000,22600,9.8,"1,423 fold",4.7,"4,799 fold",–
"Cc1cc(=O)[nH]c2ccc(CC(=O)N3CCC(CCNC(=O)c4cc5ccccc5cn4)CC3)cc12 [Compound 19, N-(2-(1-(2-(4-methyl-2-oxo-1,2-dihydroquinolin-6-yl)acetyl)piperidin-4-yl)ethyl)isoquinoline-3-carboxamide]",–,–,119,–,116,–,–
"Cc1cc(=O)[nH]c2ccc(CC(=O)N3CCC(CCNC(=O)c4ccccn4)CC3)cc12 [Compound 16, N-(2-(1-(2-(4-methyl-2-oxo-1,2-dihydroquinolin-6-yl)acetyl)piperidin-4-yl)ethyl)picolinamide]",75200,6800,13.8,"5,449 fold",35.4,192 fold,–
"CNC(=O)C(CC1CCN(C(=O)Cc2ccc3[nH]c(=O)cc(C)c3c2)CC1)NC(=O)c1ccccn1 (centres unmarked) [Compound 11, N-(3-(1-(2-(4-methyl-2-oxo-1,2-dihydroquinolin-6-yl)acetyl)piperidin-4-yl)-1-(methylamino)-1-oxopropan-2-yl)picolinamide]",32600,19400,15.7,"2,078 fold",20.2,960 fold,fold loss of selectivity BRDT-BD1 over BRDT-BD2 (BRDT-BD1): 5 fold
"Cc1cc(=O)[nH]c2ccc(CC(=O)N3CCC(CCNC(=O)c4nccc5ccccc45)CC3)cc12 [Compound 20, N-(2-(1-(2-(4-methyl-2-oxo-1,2-dihydroquinolin-6-yl)acetyl)piperidin-4-yl)ethyl)isoquinoline-1-carboxamide]",–,–,341,–,638,–,–
"Cc1ccc(-c2ccc(C(=O)NCCC3CCN(C(=O)Cc4ccc5[nH]c(=O)cc(C)c5c4)CC3)nc2)c(C)c1 [Compound 15, 5-(2,4-dimethylphenyl)-N-(2-(1-(2-(4-methyl-2-oxo-1,2-dihydroquinolin-6-yl)acetyl)piperidin-4-yl)ethyl)picolinamide]",8690,67800,27.8,312 fold,33.7,2012 fold,–
